Results as given in patent US9617244B2, “Antibacterial quinoline derivatives” (JANSSEN PHARMACEUTICA NV, priority 2012, dated 2017).
Values after ≈ are worked out from the molar mass of the structure shown.

Key:
[1] = system: Staphylococcus aureus (ATCC29213); test: In-vitro anti-bacterial activity, microtitre plate assay, IC90 determination (non-mycobacterial strains); assay type: cell-based; settings: 90% inhibitory concentration for bacterial growth, resazurin fluorescence; for IC90 STA B29213: 24 hours; for IC90: Staphylococcus aureus, ATCC29213, 24 h, read-out: IC90 STA B29213
Summary of the method: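 Inoculum of about 100 TCID50 (10–60 CFU/well) in Mueller-Hinton broth, serial five-fold compound dilutions, 24 h at 37 °C in air. Growth read by resazurin fluorescence (ex 530/em 590 nm); IC90 in μg/ml as 90% growth inhibition.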

[2] = system: Mycobacterium smegmatis (ATCC607); test: In-vitro anti-bacterial activity against strain M. Smegmatis ATCC607; assay type: cell-based; settings: 90% inhibitory concentration for bacterial growth, Alamar Blue fluorescence; for IC90 MSM 607: 48 hours; for IC90: Mycolicibacterium smegmatis, ATCC607, 48 h, read-out: IC90 MSM 607
Summary of the method: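 Serial five-fold compound dilutions in BSA-supplemented wells, inoculated with ~250 CFU/well in Mueller-Hinton broth, incubated 48 h at 37 °C, 5% CO2. Growth read by Alamar Blue fluorescence (ex 530/em 590 nm); IC90 in μg/ml.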

| Structure (SMILES) | IC90 STA B29213 [1] [µg/mL] | IC90 MSM 607 [2] [µg/mL] | IC90 [1] [µg/mL] | IC90 [2] [µg/mL] |
| --- | --- | --- | --- | --- |
| CS(=O)(=O)c1ccc2[nH]c(=O)c(C(c3ccc(Cl)cc3)C3(O)CCNC(Cc4ccc(F)c(F)c4)C3)cc2c1 (stereo not drawn) [Compound 215] | 13.66 (≈ 23.8 µM) | 17.19 (≈ 30 µM) | – | – |
| O=c1[nH]c2ccc(Br)cc2cc1C(c1ccc(Cl)cc1)C1(O)CCNCC1Cc1cccc(F)c1 (stereo not drawn) [Compound 229] | 1.86 (≈ 3.35 µM) | 3.31 (≈ 5.95 µM) | – | – |
| CSc1ccc2[nH]c(=O)c(C(c3ccc(Cl)cc3)C3(O)CCNC(c4ccccc4)C3)cc2c1 (stereo not drawn) [Compound 230] | 1.67 (≈ 3.4 µM) | 1.18 (≈ 2.4 µM) | – | – |
| CSc1ccc2[nH]c(=O)c(C(c3ccc(Cl)cc3)C3(O)CCNC(c4ccccc4)C3)cc2c1 (stereo not drawn) [Compound 231] | 3.30 (≈ 6.72 µM) | 2.62 (≈ 5.34 µM) | – | – |
| CSc1ccc2[nH]c(=O)c(C(c3ccc(Cl)cc3)C3(O)CCNC(c4ccccc4)C3)cc2c1 (stereo not drawn) [Compound 232] | 6.65 (≈ 13.5 µM) | 5.93 (≈ 12.1 µM) | – | – |
| CSc1ccc2[nH]c(=O)c(C(c3ccc(Cl)cc3)C3(O)CCNC(c4ccccc4)C3)cc2c1 (stereo not drawn) [Compound 233] | 1.67 (≈ 3.4 µM) | 1.32 (≈ 2.69 µM) | – | – |
| CSc1ccc2[nH]c(=O)c(C(c3ccc(Cl)cc3)C3(O)CCNC(c4ccccc4)C3)cc2c1 (stereo not drawn) [Compound 234] | 5.24 (≈ 10.7 µM) | 3.71 (≈ 7.56 µM) | – | – |
| CSc1ccc2[nH]c(=O)c(C(c3ccc(Cl)cc3)C3(O)CCNC(c4ccccc4)C3)cc2c1 (stereo not drawn) [Compound 235] | 4.17 (≈ 8.49 µM) | 6.60 (≈ 13.4 µM) | – | – |
| Cc1cc(F)ccc1C1CC(O)(C(c2ccccc2)c2cc3cc(-c4cccnc4)ccc3[nH]c2=O)CCN1 (stereo not drawn) [Compound 236] | – | – | 10.3 (≈ 19.7 µM) | 7.26 (≈ 14 µM) |
| O=c1[nH]c2ccc(Cl)cc2cc1C(c1ccc(Cl)cc1)C1(O)CCNC(Cc2ccccc2)C1 (stereo not drawn) [Compound 239] | 1.67 (≈ 3.38 µM) | 2.97 (≈ 6.02 µM) | – | – |
| O=c1[nH]c2ccc(Cl)cc2cc1C(c1ccc(Cl)cc1)C1(O)CCNC(Cc2ccccc2)C1 (stereo not drawn) [Compound 240] | 6.67 (≈ 13.5 µM) | 4.21 (≈ 8.53 µM) | – | – |
| O=c1[nH]c2ccc(Cl)cc2cc1C(c1ccc(Cl)cc1)C1(O)CCNC(Cc2ccccc2)C1 (stereo not drawn) [Compound 241] | 4.72 (≈ 9.57 µM) | 3.34 (≈ 6.77 µM) | – | – |
| COc1nc2ccc(SC)cc2cc1C(c1ccc(Cl)cc1)C1(O)CCNC(c2ccc(F)cc2C)C1 (stereo not drawn) [Compound 242] | 1.51 (≈ 2.81 µM) | – | – | 1.2 (≈ 2.23 µM) |
| COc1nc2ccc(S(C)(=O)=O)cc2cc1C(c1ccccc1)C1(O)CCNC(c2ccc(F)cc2C)C1 (stereo not drawn) [Compound 253] | >13.43 | >13.43 | – | – |
| O=c1[nH]c2ccc(Br)cc2cc1C(c1ccc(Cl)cc1)C1(O)CCNC(CC2CCCCC2)C1 (stereo not drawn) [Compound 254] | – | 3.60 (≈ 6.62 µM) | 3.6 (≈ 6.62 µM) | – |
| O=c1[nH]c2ccc(Br)cc2cc1C(c1ccc(Cl)cc1)C1(O)CCNC(CC2CCCCC2)C1 (stereo not drawn) [Compound 255] | 3.65 (≈ 6.71 µM) | 7.28 (≈ 13.4 µM) | – | – |
| O=c1[nH]c2ccc(Br)cc2cc1C(c1ccc(Cl)cc1)C1(O)CCNC(CC2CCCCC2)C1 (stereo not drawn) [Compound 258] | 3.66 (≈ 6.73 µM) | 3.66 (≈ 6.73 µM) | – | – |
| CSc1ccc2[nH]c(=O)c(C(c3ccc(Cl)cc3)C3(O)CCNC(c4ccc(F)cc4C)C3)cc2c1 (stereo not drawn) [Compound 266] | – | – | 2.5 (≈ 4.78 µM) | 2.22 (≈ 4.24 µM) |
| CSc1ccc2[nH]c(=O)c(C(c3ccc(Cl)cc3)C3(O)CCNC(c4ccc(F)cc4C)C3)cc2c1 (stereo not drawn) [Compound 268] | 1.76 (≈ 3.36 µM) | 1.40 (≈ 2.68 µM) | – | – |

Second part, the compound after the results:

| IC90 STA B29213 [1] [µg/mL] | IC90 MSM 607 [2] [µg/mL] | IC90 [1] [µg/mL] | IC90 [2] [µg/mL] | Structure (SMILES) |
| --- | --- | --- | --- | --- |
| >14.80 | >14.80 | – | – | Cc1cc(F)ccc1C1CC(O)(C(c2ccc(Cl)cc2)c2cc3cc(S(C)(=O)=O)ccc3[nH]c2=O)CCN1 (stereo not drawn) [Compound 220] |
| 3.73 (≈ 6.72 µM) | 2.96 (≈ 5.33 µM) | – | – | Cc1cc(F)ccc1C1CC(O)(C(c2ccc(Cl)cc2)c2cc3cc(S(C)(=O)=O)ccc3[nH]c2=O)CCN1 (stereo not drawn) [Compound 221] |
| >14.78 | >14.78 | – | – | Cc1cc(F)ccc1C1CC(O)(C(c2ccc(Cl)cc2)c2cc3cc(S(C)(=O)=O)ccc3[nH]c2=O)CCN1 (stereo not drawn) [Compound 222] |
| >14.83 | >14.83 | – | – | Cc1cc(F)ccc1C1CC(O)(C(c2ccc(Cl)cc2)c2cc3cc(S(C)(=O)=O)ccc3[nH]c2=O)CCN1 (stereo not drawn) [Compound 223] |
| 3.73 (≈ 6.72 µM) | 5.92 (≈ 10.7 µM) | – | – | Cc1cc(F)ccc1C1CC(O)(C(c2ccc(Cl)cc2)c2cc3cc(S(C)(=O)=O)ccc3[nH]c2=O)CCN1 (stereo not drawn) [Compound 224] |
| >14.77 | >14.77 | – | – | Cc1cc(F)ccc1C1CC(O)(C(c2ccc(Cl)cc2)c2cc3cc(S(C)(=O)=O)ccc3[nH]c2=O)CCN1 (stereo not drawn) [Compound 225] |
| – | 11.06 (≈ 21.2 µM) | > 13.9 | – | Cc1cc(F)ccc1C1CC(O)(C(c2ccccc2)c2cc3cc(S(C)(=O)=O)ccc3[nH]c2=O)CCN1 (stereo not drawn) [Compound 237] |
| >13.99 | >13.99 | – | – | Cc1cc(F)ccc1C1CC(O)(C(c2ccccc2)c2cc3cc(S(C)(=O)=O)ccc3[nH]c2=O)CCN1 (stereo not drawn) [Compound 238] |
| >13.89 | >13.89 | – | – | Cc1cc(F)ccc1C1CC(O)(C(c2ccccc2)c2cc3cc(S(C)(=O)=O)ccc3[nH]c2=O)CCN1 (stereo not drawn) [Compound 263] |
| >13.88 | 3.49 (≈ 6.7 µM) | – | – | Cc1cc(F)ccc1C1CC(O)(C(c2ccccc2)c2cc3cc(S(C)(=O)=O)ccc3[nH]c2=O)CCN1 (stereo not drawn) [Compound 264] |
| >13.92 | 13.92 (≈ 26.7 µM) | – | – | Cc1cc(F)ccc1C1CC(O)(C(c2ccccc2)c2cc3cc(S(C)(=O)=O)ccc3[nH]c2=O)CCN1 (stereo not drawn) [Compound 265] |
| >14.75 | >14.75 | – | – | Cc1cc(F)ccc1C1CC(O)(C(c2cccc(Cl)c2)c2cc3cc(S(C)(=O)=O)ccc3[nH]c2=O)CCN1 (stereo not drawn) [Compound 269] |
| 7.42 (≈ 13.4 µM) | 5.89 (≈ 10.6 µM) | – | – | Cc1cc(F)ccc1C1CC(O)(C(c2cccc(Cl)c2)c2cc3cc(S(C)(=O)=O)ccc3[nH]c2=O)CCN1 (stereo not drawn) [Compound 270] |
| 7.42 (≈ 13.4 µM) | 9.34 (≈ 16.8 µM) | – | – | Cc1cc(F)ccc1C1CC(O)(C(c2cccc(Cl)c2)c2cc3cc(S(C)(=O)=O)ccc3[nH]c2=O)CCN1 (stereo not drawn) [Compound 271] |
